Results from ChEMBL document CHEMBL2074215, “The effects of pluronics block copolymers and Cremophor EL on intestinal lipoprotein processing and the potential link with P-glycoprotein in Caco-2 cells” (Pharm Res, 2003).

Biological target: ATP-dependent translocase ABCB1 (Homo sapiens, UniProt P08183)
Assay: TP_TRANSPORTER: transepithelial transport of cyclosporin A in Caco-2 cells
Format: functional, cell-based

ATP-dependent translocase ABCB1, sequence (P08183 whole entry): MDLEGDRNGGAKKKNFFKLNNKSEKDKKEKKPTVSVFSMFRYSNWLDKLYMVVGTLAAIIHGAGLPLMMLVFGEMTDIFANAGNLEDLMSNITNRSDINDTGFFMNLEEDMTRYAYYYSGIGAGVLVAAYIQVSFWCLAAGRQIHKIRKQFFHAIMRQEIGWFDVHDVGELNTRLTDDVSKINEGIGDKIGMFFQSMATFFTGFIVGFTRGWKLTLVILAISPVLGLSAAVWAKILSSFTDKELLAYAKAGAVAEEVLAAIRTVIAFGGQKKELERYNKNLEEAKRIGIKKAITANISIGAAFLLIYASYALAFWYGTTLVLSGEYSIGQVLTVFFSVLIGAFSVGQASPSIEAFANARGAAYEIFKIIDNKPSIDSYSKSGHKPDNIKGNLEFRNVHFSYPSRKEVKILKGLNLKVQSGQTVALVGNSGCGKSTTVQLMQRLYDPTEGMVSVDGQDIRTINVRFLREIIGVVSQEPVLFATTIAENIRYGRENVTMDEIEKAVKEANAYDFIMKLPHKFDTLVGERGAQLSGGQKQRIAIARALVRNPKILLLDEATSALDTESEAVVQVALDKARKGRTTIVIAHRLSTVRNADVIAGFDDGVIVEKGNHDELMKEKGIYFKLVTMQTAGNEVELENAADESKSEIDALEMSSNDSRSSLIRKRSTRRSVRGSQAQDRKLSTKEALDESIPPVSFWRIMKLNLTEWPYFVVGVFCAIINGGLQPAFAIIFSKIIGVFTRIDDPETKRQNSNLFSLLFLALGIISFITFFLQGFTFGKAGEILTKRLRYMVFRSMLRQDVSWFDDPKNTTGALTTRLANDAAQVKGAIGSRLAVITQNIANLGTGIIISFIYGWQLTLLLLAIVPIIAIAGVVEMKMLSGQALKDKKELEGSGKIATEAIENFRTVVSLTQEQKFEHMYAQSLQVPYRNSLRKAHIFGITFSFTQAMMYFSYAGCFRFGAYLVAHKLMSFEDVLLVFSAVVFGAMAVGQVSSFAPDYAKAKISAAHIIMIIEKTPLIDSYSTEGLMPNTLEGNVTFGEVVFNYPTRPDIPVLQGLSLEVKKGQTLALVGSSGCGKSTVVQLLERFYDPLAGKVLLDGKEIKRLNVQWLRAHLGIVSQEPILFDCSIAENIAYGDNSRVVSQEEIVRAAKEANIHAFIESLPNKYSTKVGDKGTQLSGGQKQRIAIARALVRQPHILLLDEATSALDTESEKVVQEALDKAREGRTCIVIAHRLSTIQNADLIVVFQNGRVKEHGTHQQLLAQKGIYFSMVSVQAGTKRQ

Row | Sequence | Activity
1 | CREMOPHOR EL | inhibitor [+]
2 | PLURONIC L81 | inhibitor [+]
